Measured values: ChEMBL document CHEMBL1201862, “PubChem BioAssay data set” (2004)
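Cultured in 96-well plates, cells were exposed to test compound for 48 hours across five concentrations. GI50 marks 50% less growth.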 The source made the active and inactive calls. Cut-off read from the data, not from the text of the source: active = GI50 up to about 1.1 µM and inactive = higher.

Assays:
Test in all cases: NCI anticancer screen, dose series, 48 h
TK-10 = system: TK-10
HT-29 = system: HT-29
NCI/ADR-RES = system: NCI/ADR-RES
A549 = system: A549
KM12 = system: KM12
SK-OV-3 = system: SK-OV-3
SNB-75 = system: SNB-75
SK-MEL-28 = system: SK-MEL-28
RPMI-8226 = system: RPMI-8226
SR = system: SR
NCI-H226 = system: NCI-H226
SF-268 = system: SF-268
HL-60 = system: HL-60
UACC-62 = system: UACC-62
MDA-MB-231 = system: MDA-MB-231
UACC-257 = system: UACC-257
DU-145 = system: DU-145
T47D = system: T47D
SK-MEL-2 = system: SK-MEL-2
M19-MEL = system: M19-MEL

| SMILES | GI50 (TK-10) | GI50 (HT-29) | GI50 (NCI/ADR-RES) | GI50 (A549) | GI50 (KM12) | GI50 (SK-OV-3) | GI50 (SNB-75) | GI50 (SK-MEL-28) | GI50 (RPMI-8226) | GI50 (SR) | GI50 (NCI-H226) | GI50 (SF-268) | GI50 (HL-60) | GI50 (UACC-62) | GI50 (MDA-MB-231) | GI50 (UACC-257) | GI50 (DU-145) | GI50 (T47D) | GI50 (SK-MEL-2) | GI50 (M19-MEL) |
| --- | --- | --- | --- | --- | --- | --- | --- | --- | --- | --- | --- | --- | --- | --- | --- | --- | --- | --- | --- | --- |
| O=C(/N=C1/OC(CN2CCOCC2)CN1C(=O)Nc1ccccc1)Nc1ccccc1 (stereo not drawn) | > 100 µM (inactive) | > 100 µM (inactive) | > 100 µM (inactive) | > 100 µM (inactive) | > 100 µM (inactive) | > 100 µM (inactive) | 54.7 µM (inactive) | > 100 µM (inactive) | > 100 µM (inactive) | > 100 µM (inactive) | > 100 µM (inactive) | > 100 µM (inactive) | > 100 µM (inactive) | > 100 µM (inactive) | > 100 µM (inactive) | > 100 µM (inactive) | > 100 µM (inactive) | 21.4 µM (inactive) | > 100 µM (inactive) |  |
| CCOP(=O)(OCC)C1C(=O)O[C@H]2CCCC[C@@H]12 (stereo partly drawn) | > 100 µM (inactive) | > 100 µM (inactive) |  | > 100 µM (inactive) | > 100 µM (inactive) | > 100 µM (inactive) | > 100 µM (inactive) | > 100 µM (inactive) | > 100 µM (inactive) |  |  | > 100 µM (inactive) |  | > 100 µM (inactive) |  | > 100 µM (inactive) |  |  | > 100 µM (inactive) | > 100 µM (inactive) |
| c1ccc(COc2nc3cc(C45CC6CC(CC(C6)C4)C5)ccc3[nH]2)cc1 | 4.65 µM (inactive) | 3.53 µM (inactive) | 7.45 µM (inactive) | 16.5 µM (inactive) | 15.5 µM (inactive) | 29.8 µM (inactive) | 29.6 µM (inactive) | 17.1 µM (inactive) | 5.07 µM (inactive) | > 100 µM (inactive) | 12 µM (inactive) | 31.3 µM (inactive) | 9.38 µM (inactive) | 7.13 µM (inactive) | 21.8 µM (inactive) | 2.92 µM (inactive) | 20.1 µM (inactive) | 2.83 µM (inactive) | 11.2 µM (inactive) |  |
| COC1=CC(=O)N(C)C(O)C1(C#N)OC1OC(CO)C(O)C(O)C1O (stereo not drawn) | > 100 µM (inactive) | > 10 µM (inactive) | > 100 µM (inactive) | > 100 µM (inactive) | > 100 µM (inactive) | > 100 µM (inactive) | > 100 µM (inactive) | > 100 µM (inactive) | > 100 µM (inactive) | > 100 µM (inactive) | > 100 µM (inactive) | > 100 µM (inactive) | > 100 µM (inactive) | > 100 µM (inactive) | > 100 µM (inactive) | > 100 µM (inactive) | > 100 µM (inactive) | > 100 µM (inactive) | > 100 µM (inactive) |  |
| Cc1cccc(C)c1NC(=O)C(=O)C(C#N)c1ccccc1 (stereo not drawn) | > 100 µM (inactive) | > 100 µM (inactive) |  | > 100 µM (inactive) | > 100 µM (inactive) | > 100 µM (inactive) | > 100 µM (inactive) | > 100 µM (inactive) |  |  | > 100 µM (inactive) | > 100 µM (inactive) | > 100 µM (inactive) | > 100 µM (inactive) |  | > 100 µM (inactive) |  |  | > 100 µM (inactive) | > 100 µM (inactive) |
| CCOc1ccccc1N1C(=O)C(=O)C(c2nc3ccccc3s2)C(=O)C1=O | 24.5 µM (inactive) | 39.8 µM (inactive) |  | 20 µM (inactive) | 98.2 µM (inactive) | 30.9 µM (inactive) | 23.8 µM (inactive) | > 100 µM (inactive) | > 100 µM (inactive) |  | 69.5 µM (inactive) | 82.6 µM (inactive) |  | > 100 µM (inactive) |  | > 100 µM (inactive) |  |  | > 100 µM (inactive) | 69.5 µM (inactive) |
| CC(=O)OCC(=O)[C@@]12OC(C)(C)O[C@@H]1C[C@H]1[C@@H]3CC=C4C[C@@H](O)CC[C@]4(C)[C@H]3CC[C@@]12C | 40.3 µM (inactive) | > 100 µM (inactive) | 66.5 µM (inactive) | > 100 µM (inactive) | > 100 µM (inactive) | 38.3 µM (inactive) | 13.9 µM (inactive) | > 100 µM (inactive) | 59.8 µM (inactive) | > 100 µM (inactive) | > 100 µM (inactive) | 31.6 µM (inactive) | > 100 µM (inactive) | > 100 µM (inactive) | 61.5 µM (inactive) | > 100 µM (inactive) | 49.2 µM (inactive) | 35.5 µM (inactive) | > 100 µM (inactive) |  |
| CCc1n[nH]c(=O)n1N1C(=O)C2CCCCC2C1=O (stereo not drawn) | > 100 µM (inactive) | > 100 µM (inactive) | > 100 µM (inactive) | > 100 µM (inactive) | > 100 µM (inactive) | > 100 µM (inactive) | > 100 µM (inactive) | > 100 µM (inactive) | > 100 µM (inactive) | > 100 µM (inactive) | > 100 µM (inactive) | > 100 µM (inactive) | > 100 µM (inactive) | > 100 µM (inactive) | > 100 µM (inactive) | > 100 µM (inactive) | > 100 µM (inactive) | > 100 µM (inactive) | > 100 µM (inactive) |  |
| CC(C)(OCc1ccccc1)c1ccccc1P(c1ccccc1)c1ccccc1 | 37.1 µM (inactive) | 30.1 µM (inactive) | 50.7 µM (inactive) | 38.7 µM (inactive) | 23.1 µM (inactive) | > 100 µM (inactive) | > 100 µM (inactive) | 42.2 µM (inactive) | 4.04 µM (inactive) | 34.8 µM (inactive) | 69.2 µM (inactive) | 83.8 µM (inactive) | 13.5 µM (inactive) | 47.5 µM (inactive) | 65 µM (inactive) | 22.3 µM (inactive) | 82.6 µM (inactive) | 28.4 µM (inactive) | 73.5 µM (inactive) |  |
| COc1cc(O)cc(/C=C/c2ccc(O)cc2)c1 | 29.4 µM (inactive) | 40.4 µM (inactive) | 38.9 µM (inactive) | 27.7 µM (inactive) | 25.4 µM (inactive) | > 100 µM (inactive) | 90.4 µM (inactive) | > 100 µM (inactive) | 4.07 µM (inactive) | 42 µM (inactive) | 24.7 µM (inactive) | 49.1 µM (inactive) | 27.2 µM (inactive) | 20.7 µM (inactive) | 16 µM (inactive) | 40.8 µM (inactive) | 39 µM (inactive) | 44.7 µM (inactive) | 52.7 µM (inactive) |  |
| Cc1c(F)c(N)c2c(=O)cc(-c3ccc(N)c(F)c3)oc2c1F [AMINOFLAVONE] | 0.258 µM (active) | 33.7 µM (inactive) | 13.9 µM (inactive) | 2.09 µM (inactive) | 21.9 µM (inactive) | 17.6 µM (inactive) | 26.7 µM (inactive) | 45.1 µM (inactive) | 14.9 µM (inactive) | 18.7 µM (inactive) | 3.52 µM (inactive) | 23.1 µM (inactive) | 44.8 µM (inactive) | 4.73 µM (inactive) | 18.7 µM (inactive) | 0.298 µM (active) | 26.3 µM (inactive) | 0.313 µM (active) | 40.6 µM (inactive) |  |
